The record followed here is patent US5773459A, “Urea- and thiourea-type compounds” (Sugen, Inc., priority 1995, dated 1998).

One assay addresses T1, human EGF receptor (Homo sapiens, UniProt P00533).
T1 construct: expressed in transfected cells; host or cells: NIH3T3 clone C7 (EGFR/C7)
Nature of the assay: EGFR Whole Cell Kinase Assay (EGFR-3T3 assay). The class given is cell-based. The procedure: Growth assays were carried out using human mammary epithelial SKBR3 (ATCC HTB30) cells (SKBR3 cells over-express HER2), SKOV3 (ATCC HTB77) human ovarian cancer cell line (SKOV3 cells also over-express HER2), A431 cells (A431 cells over-express EGFR) MCF7 human breast carcinoma cells, MCF7 cells overexpressing the HER2 kinase (MCF7-HER2), NIH3T3 cells, and NIH3T3 cells overexpressing the HER2 kinase (3T3-HER2.
EGFR Whole Cell Kinase Assay
EGFR kinase activity (EGFR-3T3 assay) in whole cells was measured as described below:
Coated plates are good for up to 10 days when stored at 4.sunburst.C.
B. On day of use, remove coating buffer and replace with blocking buffer (5% Carnation Instant NonFat Dry Milk in PBS). Incubate the plate, shaking, at room temperature (about 23.sunburst.C to 25.sunburst.C) for 30 minutes. Just prior to use, remove blocking buffer and wash plate 4 times with TBST buffer.
A. EGFR/C7 cell line (Honegger, et al., supra) can be used for this assay.
B. Choose dishes having 80-90% confluence for the experiment.
Trypsinize cells and stop reaction by adding 10% CS DMEM medium. Suspend cells in DMEM medium (10% CS DMEM medium) and centrifuge once at 1000 rpm, and once at room temperature for 5 minutes.
C. Resuspend cells in seeding medium (DMEM, 0.5% bovine serum), and count the cells using trypan blue. Viability above 90% is acceptable. Seed cells in DMEM medium (0.5% bovine serum) at a density of 10,000 cells per well, 100 μl per well, in a 96 well microtiter plate. Incubate seeded cells in 5% CO2 at 37.sunburst.C for about 40 hours.
A. Check seeded cells for contamination using an inverted microscope. Dilute drug stock (10 mg/ml in DMSO) 1:10 in DMEM medium, then transfer 5 μl to a test well for a final drug dilution of 1:200 and a final DMSO concentration of 1%.
Control wells receive DMSO alone. Incubate in 5% CO2 at 37° C. for one hour.
C. Prepare fresh HNTG sufficient for 100 μl per well; and place on ice.
Control wells receive DMEM alone. […]
K. The maximal phosphotyrosine signal is determined by subtracting the value of the negative controls from the positive controls.

Another assay has as its target T2, Insulin Receptor (Homo sapiens, UniProt P06213).
T2 construct: host or cells: H25 (NIH3T3)
Nature of the assay: Cellular Insulin Receptor ELISA. The class given is cell-based. The procedure: Cellular Insulin Receptor ELISA (Version I)
The following protocol describes the cell line, reagents and procedures used to measure phosphotyrosine level on Insulin Receptor, which indicates Insulin Receptor tyrosine kinase activity.
(2). H25 cells are grown in an incubator with 5% CO2 at 37° C. The growth media is DMEM+10% FBS (heat inactivated)+2 mM L-Glutamine.
(3). For ELISA plate coating, the monoclonal anti-IR antibody named BBE is used. Antibodies are purified by the Enzymology Lab, SUGEN, Inc.
(2). […] Incubate for 1 day then replace medium to 0.01% serum medium (90/ul) and incubate in 5% CO2 and 37° C. overnight.
2. ELISA Plate Coating and Blocking
(2). Remove the coating solution, and replace with 100 ul Blocking Buffer, and shake for 30 minutes. Remove the blocking buffer and wash the plate just before adding lysate.
(1). The drugs are tested in serum-free condition.
(2). Dilute drug stock (in 100% DMSO) 1:10 with DMEM in 96-well poly-propylene plate, and transfer 10 ul/well of this solution to the cells to achieve final drug dilution 1:100, and final DMSO concentration of 1.0%. Incubate the cells in 5% CO2 at 37° C. for 2 hours.
(3). Prepare fresh cell lysis buffer (HNTG*) HNTG 2 ml EDTA 0.1 ml Na3VO4 0.1 ml Na4P2O7 0.1 ml H20 7.3 ml HNTG* 10 ml.
(4). After drug incubation for two hours, transfer 10 ul/well of 1 μM Insulin in PBS to the cells (Final Conc=100 nM), and incubate at 5% CO2 at 37° C. for 10 minutes.
(5). Remove media and add 100ul/well HNTG* and shake for 10 minutes. Look at cells under microscope to see if they are adequately lysed.
(6). Use a 12-channel pipette to scrape the cells from the plate, and homogenize the lysate by repeat aspiration and dispense. Transfer all the lysate to the antibody coated ELISA plate [V.2.(2)], and shake for 1 hour.
(7). Remove the lysate, wash the plate, transfer anti-pTyr (1:3,000 with TBST) 100 ul/well, and shake for 30 minutes.
(8). Remove anti-pTyr, wash the plate, transfer detection antibody (1:3,000 with TBST) 100 ul/well, and shake for 30 minutes.
(9). […]
For orientation: An ELISA detects its analyte on a solid surface through an enzyme-linked reagent.

[1] abbreviates: EGFR/C7 NIH3T3 cells, EGF stimulated, read-out: ELISA DATA: EGFR.
[2] abbreviates: H25 cells (NIH3T3 overexpressing Insulin Receptor), insulin stimulated, read-out: ELISA DATA: IR.

Each structure is given as a SMILES string. Like-named read-outs stand apart in the source and are kept apart here.

T2 sequence (P06213 28-1382, species assumed): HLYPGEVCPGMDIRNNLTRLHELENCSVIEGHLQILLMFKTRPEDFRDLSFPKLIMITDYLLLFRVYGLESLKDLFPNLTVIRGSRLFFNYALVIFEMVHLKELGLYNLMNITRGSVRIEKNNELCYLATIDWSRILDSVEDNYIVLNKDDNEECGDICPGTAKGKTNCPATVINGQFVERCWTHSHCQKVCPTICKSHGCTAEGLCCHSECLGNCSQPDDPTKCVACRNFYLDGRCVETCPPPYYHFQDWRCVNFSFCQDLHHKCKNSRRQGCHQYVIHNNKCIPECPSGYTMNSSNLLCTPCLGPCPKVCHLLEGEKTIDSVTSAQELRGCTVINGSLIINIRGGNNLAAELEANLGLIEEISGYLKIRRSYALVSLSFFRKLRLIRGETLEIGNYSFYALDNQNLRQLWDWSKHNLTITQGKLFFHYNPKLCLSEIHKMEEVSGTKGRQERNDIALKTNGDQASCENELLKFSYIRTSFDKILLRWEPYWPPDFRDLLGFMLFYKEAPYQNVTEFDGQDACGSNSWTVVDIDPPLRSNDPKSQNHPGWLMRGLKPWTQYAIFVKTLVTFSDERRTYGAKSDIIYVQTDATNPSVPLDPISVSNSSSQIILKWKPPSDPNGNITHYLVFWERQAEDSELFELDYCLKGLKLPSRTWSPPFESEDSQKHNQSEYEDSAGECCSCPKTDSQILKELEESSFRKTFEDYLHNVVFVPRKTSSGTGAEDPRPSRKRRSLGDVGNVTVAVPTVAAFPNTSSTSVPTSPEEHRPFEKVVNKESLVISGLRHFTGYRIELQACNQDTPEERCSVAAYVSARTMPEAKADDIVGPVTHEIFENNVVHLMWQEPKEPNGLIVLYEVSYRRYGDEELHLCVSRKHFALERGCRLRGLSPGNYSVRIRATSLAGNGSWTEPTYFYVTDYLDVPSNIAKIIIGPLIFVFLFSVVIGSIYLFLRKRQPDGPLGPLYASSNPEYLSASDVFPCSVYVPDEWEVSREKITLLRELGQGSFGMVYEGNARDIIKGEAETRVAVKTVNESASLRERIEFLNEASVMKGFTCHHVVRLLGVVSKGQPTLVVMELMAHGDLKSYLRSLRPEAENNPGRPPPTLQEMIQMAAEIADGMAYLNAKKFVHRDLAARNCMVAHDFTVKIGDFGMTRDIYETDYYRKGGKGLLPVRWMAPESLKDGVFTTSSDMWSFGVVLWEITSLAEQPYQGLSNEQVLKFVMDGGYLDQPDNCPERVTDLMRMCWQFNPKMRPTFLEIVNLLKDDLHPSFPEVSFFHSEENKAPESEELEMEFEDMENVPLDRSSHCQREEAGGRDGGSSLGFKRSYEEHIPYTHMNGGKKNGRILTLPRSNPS
T1 sequence (P00533 25-1210): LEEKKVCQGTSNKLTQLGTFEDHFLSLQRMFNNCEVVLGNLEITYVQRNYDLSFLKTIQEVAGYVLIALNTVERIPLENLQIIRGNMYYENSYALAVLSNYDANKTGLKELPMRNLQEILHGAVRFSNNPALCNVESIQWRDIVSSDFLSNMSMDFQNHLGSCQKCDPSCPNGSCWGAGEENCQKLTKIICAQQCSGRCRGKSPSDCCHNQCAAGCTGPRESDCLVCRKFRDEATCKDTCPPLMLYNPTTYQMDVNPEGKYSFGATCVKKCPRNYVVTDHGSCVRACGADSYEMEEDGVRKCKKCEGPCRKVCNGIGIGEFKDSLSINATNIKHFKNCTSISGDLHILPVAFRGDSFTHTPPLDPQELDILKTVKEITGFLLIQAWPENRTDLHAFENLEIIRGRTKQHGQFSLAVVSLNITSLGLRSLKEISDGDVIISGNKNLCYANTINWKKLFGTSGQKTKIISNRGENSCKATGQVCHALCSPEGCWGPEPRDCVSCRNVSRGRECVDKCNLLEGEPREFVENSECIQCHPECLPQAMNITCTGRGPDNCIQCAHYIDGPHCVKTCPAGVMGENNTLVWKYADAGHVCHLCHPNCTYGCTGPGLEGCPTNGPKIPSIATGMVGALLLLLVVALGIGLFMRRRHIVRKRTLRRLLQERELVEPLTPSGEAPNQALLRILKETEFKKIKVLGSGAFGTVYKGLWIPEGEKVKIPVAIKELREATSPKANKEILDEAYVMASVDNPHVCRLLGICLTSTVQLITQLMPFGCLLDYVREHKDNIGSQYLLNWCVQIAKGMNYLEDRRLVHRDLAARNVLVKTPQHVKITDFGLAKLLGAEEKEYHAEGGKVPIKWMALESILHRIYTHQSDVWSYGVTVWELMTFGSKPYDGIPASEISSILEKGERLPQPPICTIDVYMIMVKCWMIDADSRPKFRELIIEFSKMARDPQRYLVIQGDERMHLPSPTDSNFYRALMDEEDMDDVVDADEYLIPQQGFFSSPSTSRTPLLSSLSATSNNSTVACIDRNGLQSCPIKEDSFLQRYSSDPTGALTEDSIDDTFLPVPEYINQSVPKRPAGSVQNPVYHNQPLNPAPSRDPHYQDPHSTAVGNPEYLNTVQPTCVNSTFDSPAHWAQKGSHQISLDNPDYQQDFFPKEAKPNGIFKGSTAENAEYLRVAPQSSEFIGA

As for `CC(C)S(=O)(=O)c1csc(NC(=O)Nc2ccc(C(C)(C)C)cc2)c1Cl` [Example Z1, N-[3-Chloro-4-(isopropylsulfonyl)thien-2-yl]-N'-(4-t-butylphenyl)urea], the IC50 on human EGF receptor (setting [1]) and at Insulin Receptor (setting [2]) was > 100 µM each time. Consider `CC(C)S(=O)(=O)c1csc(NC(=O)Nc2cc(C(F)(F)F)cc(C(F)(F)F)c2)c1Cl` [Example Z2, N-[3-Chloro-4-(isopropylsulfonyl)thien-2-yl]-N'-(3,5-di-trifluoromethylphenyl)urea], for which the IC50 at Insulin Receptor (setting [2]) is > 100 µM. As to `O=C(Nc1ccc(SC(F)(F)F)cc1)Nc1ccc(Oc2ccc(Cl)cc2Cl)nc1` [Example Z3], the values for the IC50 on human EGF receptor and against Insulin Receptor were 69.5 µM and > 100 µM, respectively. Consider `N#Cc1ccc(NC(=S)Nc2ccc(S(=O)(=O)N3CCCCC3)cc2)cc1` [Example Z4, N-(4-Cyanophenyl)-N'-[4-[(piperid-1-yl)sulfonyl]phenyl]thiourea], for which the IC50 on human EGF receptor (setting [1]) was > 100 µM.
